Measured values from US20090012071A1, “4-SUBSTITUTED-1H-ISOTHIAZOLO[5,4-B][1,4]OXAZINO[2,3,4-IJ]QUINOLINE-7,8(2H,9H)-DIONES AND RELATED COMPOUNDS AS ANTI-INFECTIVE AGENTS” (priority 2007, published 2009).
Values belong to the compound of their own block, whether it stands above or below them.

Experiments:
[1] = tested on: E. coli ATCC 25922; assay: Minimum inhibitory concentration (MIC) assay, broth microdilution; type: cell-based
Protocol: (§1) The antimicrobial activity of the compounds of the invention may be evaluated by a number of methods, including the following visual minimum inhibitory concentration (MIC) assay. This assay determines the minimum concentration of compound required to inhibit growth of a bacterial strain.
(§2) Whole-cell antibacterial activity is determined by broth microdilution using conditions recommended by the NCCLS (see National Committee for Clinical Laboratory Standards. 2001. Performance standards for antimicrobial susceptibility testing: 11th informational supplement. Vol. 21, no. 1, M100-S11. National Committee for Clinical Laboratory Standards, Wayne, Pa.). Test compounds are dissolved in DMSO and diluted 1:50 in Mueller-Hinton II broth (Becton-Dickinson) to produce a 256 μg/ml stock solution. In a 96-well microtiter plate, the compound solution is serially two-fold diluted in Mueller-Hinton II broth. After the compounds are diluted, a 50 μl aliquot of the test organism (˜1×10^6 cfu/mL) is added to each well of the microtiter plate. The final test concentrations ranges from 0.125-128 μg/mL. Inoculated plates are incubated in ambient air at 37° C. for 18 to 24 hours. […] The minimum inhibitory concentration (MIC) is determined as the lowest concentration of compound that inhibited visible growth of the test organism.

[2] = tested on: S. aureus ATCC 29213 (MSSA); assay: as above; type: cell-based; settings: methicillan sufficient S. aureus
Protocol: as §1, §2

[3] = tested on: MRSA S. aureus (FQR700699); assay: as above; type: cell-based; set-up: MIC MRSA: unit not given beside the values; settings: for MIC MRSA: Table I
Protocol: as §1
Whole-cell antibacterial activity is determined by broth microdilution using conditions recommended by the NCCLS (see National Committee for Clinical Laboratory Standards. 2001. Performance standards for antimicrobial susceptibility testing: 11th informational supplement. Vol. 21, no. 1, M100-S11. National Committee for Clinical Laboratory Standards, Wayne, Pa.). Test compounds are dissolved in DMSO and diluted 1:50 in Mueller-Hinton II broth (Becton-Dickinson) to produce a 256 μg/ml stock solution. In a 96-well microtiter plate, the compound solution is serially two-fold diluted in Mueller-Hinton II broth. After the compounds are diluted, a 50 μl aliquot of the test organism (˜1×10^6 cfu/mL) is added to each well of the microtiter plate. The final test concentrations ranges from 0.125-128 μg/mL. Inoculated plates are incubated in ambient air at 37° C. for 18 to 24 hours. The organisms selected for testing included laboratory strains S. aureus ATCC 29213 and E. coli ATCC 25922 (strains purchased from American Type Culture Collection, Manassas, Va.), S. aureus FQR700699, and Paeruginosa 27853. The minimum inhibitory concentration (MIC) is determined as the lowest concentration of compound that inhibited visible growth of the test organism.

[4] = tested on: CHO (Chinese hamster ovary); settings: CHO cells, positive control; cited from earlier work
[5] = tested on: Hep 2 (laryngeal carcinoma); settings: Hep 2 cells, positive control; cited from earlier work

minimal inhibitory concentration (MIC) [1]: 0.062
minimal inhibitory concentration (MIC) [2]: 0.016
minimal inhibitory concentration (MIC) ([3]; methicillan resistant S. aureus): 0.125
Structure (SMILES): C[C@H]1COc2c(N3CC[C@@H](C(C)(C)N)C3)c(F)cc3c(=O)c4c(=O)[nH]sc4n1c23 [Compound II, (S)-4-((R)-3-(2-aminopropan-2-yl)pyrrolidin-1-yl)-5-fluoro-1-methyl-1H-isothiazolo[5,4-B][1,4]oxazino[2,3,4-ij]quinoline-7,8(2H,9H)-dione]

Structure (SMILES): CC(C)(C)c1ccc(C(O)CCCN2CCC(C(O)(c3ccccc3)c3ccccc3)CC2)cc1 (stereo not drawn) [Terfenadine]
CC50 [4]: 4.3 to 6.5 µM
CC50 [5]: 3 to 5 µM

MIC MRSA [3]: 4
Structure (SMILES): C[C@H]1COc2c(N3CCN(C)CC3)c(F)cc3c(=O)c4c(=O)[nH]sc4n1c23 [compound 6, (S)-5-fluoro-1-methyl-4-(4-methylpiperazin-1-yl)-1H-isothiazolo[5,4-b][1,4]oxazino[2,3,4-ij]quinoline-7,8(2H,9H)-dione]

MIC MRSA [3]: 1
Structure (SMILES): C[C@H]1COc2c(N3CC[C@H](N)C3)c(F)cc3c(=O)c4c(=O)[nH]sc4n1c23 [compound 7, (S)-4-((S)-3-aminopyrrolidin-1-yl)-5-fluoro-1-methyl-1H-isothiazolo[5,4-b][1,4]oxazino[2,3,4-ij]quinoline-7,8(2H,9H)-dione]

MIC MRSA [3]: 0.5
Structure (SMILES): C[C@H]1COc2c(N3CC[C@@H](CN)C3)c(F)cc3c(=O)c4c(=O)[nH]sc4n1c23 [compound 8, (S)-4-((S)-3-(aminomethyl)pyrrolidin-1-yl)-5-fluoro-1-methyl-1H-isothiazolo[5,4-b][1,4]oxazino[2,3,4-ij]quinoline-7,8(2H,9H)-dione]

Structure (SMILES): C[C@H]1COc2c(N3CCNCC3)c(F)cc3c(=O)c4c(=O)[nH]sc4n1c23 [compound 9, (S)-5-fluoro-1-methyl-4-(piperazin-1-yl)-1H-isothiazolo[5,4-b][1,4]oxazino[2,3,4-ij]quinoline-7,8(2H,9H)-dione]
MIC MRSA [3]: 8
